Assay results published in ChEMBL document CHEMBL1155756, “Pacovatinins A-C, new labdane diterpenoids from the seeds of Renealmia exaltata” (J Nat Prod, 2001).
Converted amounts (≈) assume the structure as drawn.

Columns and labels:
L1210 = experiment: Cytotoxicity against mouse L1210 cells; format: functional, cell-based
KB = experiment: Cytotoxicity against human KB cells; format: functional, cell-based

Row | SMILES | IC50 (L1210) [µg/mL] | IC50 (KB) [µg/mL]
1 | C=C1[C@@H](O)C[C@H]2C(C)(C)[C@@H](O)CC[C@]2(C)[C@H]1C/C=C1\CCOC1=O [PACOVATININ B] | > 10 | > 10
2 | C=C1[C@@H](O)C[C@H]2C(C)(C)C(=O)CC[C@]2(C)[C@H]1C/C=C1/CCOC1=O [PACOVATININ C] | 4.7 (≈ 14.1 µM) | 7.3 (≈ 22 µM)
